Data from patent US6130243A, “1,4-benzodioxin derivatives” (Nisshin Flour Milling Co., Ltd., priority 1995, dated 2000).
Structures can show the parent of a compound that is named as a salt.

Columns and labels:
[1] = target: T1, β3 (Rattus norvegicus, UniProt P26255); assay: β3 agonisitic activity in rats (stimulation of adipocyte lipolysis, rat epididymal fat pads); format: cell-based; conditions: rat adipocytes, 37° C., 120 minutes; EC50 relative to compound's own maximum rate of lipolysis; hydrochloride; read-out: Lipolysis Molar EC50 value
T1 construct: determined by their activity to stimulate adipocyte lipolysis; from tissue; host or cells: adipocytes isolated with collagenase from rat epididymal fat pads
Description: β3 agonisitic activity in rats
The β3 agonisitic effect of the compounds of the present invention was determined by their activity to stimulate adipocyte lipolysis. Rat epididymal fat pads were excised and placed in a buffer containing the following composition: 130 mM sodium chloride, 4.7 mM potassium chloride, 1.25 mM magnesium sulfate, 2.8 mM calcium chloride, 10 mM HEPES, 2.5 mM sodium dihydrogenphosphate, 1 g/l glucose and 1% fatty acid-free serum albumin (pH 7.6). All the following procedures were carried out in the above-mentioned buffer. 5 g of a tissue was transferred to a plastic bottle with 10 ml of the buffer solution in which 0.1% collagenase (available from Worthington Biochemical corporation) was added.
The tissue was incubated at 37° C. for about 75 minutes with gentle shaking. After the cell suspension was filtered through nylon meshes (No. 100), the cells were washed three times with two volumes of the buffer, and it was again filtered through nylon meshes. The volume was adjusted with the buffer so that the adipocyte was brought to 20% volume. A 0.1 ml aliquot of the cell suspension was added to plastic test tubes with 0.3 ml of the buffer containing vehicle or compound. The cells were incubated at 37° C. for 120 minutes with gentle shaking. The reaction solution (0.3 ml) was transferred to a centrifuge tube with […] of silicone oil (specific gravity 0.96, available from Shinetsu Chemical Industry), centrifuged at 18,500×g for one minute, and the reaction was stopped by removing the adipocyte from the buffer.
The amount of glycerol generated from the hydrolysis of triglycerides in the buffer was determined by a method using glycerol-3-phosphate oxidase/p-chlorophenol. […] of the buffer was added to a 96-well plate which contained 0.2 ml of an assay mixture having the following composition: 50 mM Tris (pH 7.5), 5.4 mM p-chlorophenol, 250 mg/ml adenosine-5'-triphosphate disodium, 150 mg 4-aminoantipyrine, 250 U/l glycerol kinase, 500 U/l glycerol-3-phosphate oxidase, 1250 U/l horseradish peroxidase. The plate was incubated at 37° C. for 15 minutes, and then an absorbance at 505 nm was determined. The molar EC50 value is the molar concentration of compound that gives 50% of that compound's own maximum rate of lipolysis.

[2] = target: T2, human β3 receptor (Homo sapiens, UniProt P13945); assay: β3 agonistic activity on human β3 receptor (cAMP production in SK-N-MC human neuroblastoma cells); format: cell-based; conditions: 0.5 h, 10^-6 M, 37° C., 30 minutes, vs maximum of isopreterenol at 10^-6 M, hydrochloride, read-out: Ability of cAMP production at 10^-6 M, % (vs. Isopreterenol (ISP))
T2 construct: The human neuroblastoma cells (SK-N-MC) was available from American Type Culture Collection (HTB 10); host or cells: SK-N-MC human neuroblastoma cells
Description: β3 agonistic activity on human β3 receptor
The β3 agonistic activity of the compounds was determined by their abilities to stimulate the intracellular cAMP production of human neuroblast. The human neuroblastoma cells (SK-N-MC) was available from American Type Culture Collection (HTB 10), and the cells were cultured under the atmosphere of 5% CO2 at 37° C. on a 12-well plate in Dulbeccos' modified Eagle's medium containig 10% fetal calf serum. The SK-N-MC cells on reaching semi-confluence were washed twice with 1 ml of Hank's balanced salt solution (HBSS). After the cells were treated with 0.8 ml of HBSS containing 0.25 mM isobutylmethyl-xanthine at room temperature for 5 minutes, 0.1 ml of a test solution was added. Further, after incubation at 37° C. for 30 minutes, the reaction solution was aspirated, and washed twice with 2 ml of an ice-cooled phosphate-buffered saline (PBS). The cells were disrupted with 5 mM Tris buffer (pH 7.4) containing 2 mM EDTA, centrifuged at 18,500×g for one minute, and cAMP concentration in the supernatant was determined by EIA kit (available from Amersham). The ability of cAMP production was determined as a percentage of the compound to maximum activity of cAMP production of isopreterenol at 10^-6 M concentration (Proc. Natl. Acad. Sci. USA, 90, 3665, 1993).

[3] = tested on: male KKAy mice with hyperglycemia; assay: Anti-hyperglycemic activity in male KKAy mice; format: in vivo, mouse; conditions: 1 mg/kg, orally for 4 days, measured on 5th day; hydrochloride
Description: The anti-hyperglycemic effect of the present compounds was determined using male KKAy mice with hyperglycemia of 300 mg/dl or more. The compound was orally administrated successively to the hyperglycemic mice for 4 days, and the blood glucose level was measured on the 5th day. The activity of the compounds was compared in terms of percent reduction in blood glucose level (a percentage of the blood glucose level after administration to that before administration). The measurement of blood glucose level was made by the method in which tail vein of mice was dissected with a scalpel and the blood was dropped onto an electrode of glucose sensor (Touekou Super, available from Kodama).

[4] = tested on: animal models of type II diabetes; conditions: in vivo; cited from earlier work
[5] = in vivo; cited from earlier work
[6] = target: T1, β3; conditions: Nature, Vol. 309, 163, 1984; cited from earlier work
[7] = tested on: β3; conditions: cited from earlier work
[8] = tested on: β1 or β2; conditions: thought to cause side-effects; cited from earlier work

T1 sequence (P26255 whole entry): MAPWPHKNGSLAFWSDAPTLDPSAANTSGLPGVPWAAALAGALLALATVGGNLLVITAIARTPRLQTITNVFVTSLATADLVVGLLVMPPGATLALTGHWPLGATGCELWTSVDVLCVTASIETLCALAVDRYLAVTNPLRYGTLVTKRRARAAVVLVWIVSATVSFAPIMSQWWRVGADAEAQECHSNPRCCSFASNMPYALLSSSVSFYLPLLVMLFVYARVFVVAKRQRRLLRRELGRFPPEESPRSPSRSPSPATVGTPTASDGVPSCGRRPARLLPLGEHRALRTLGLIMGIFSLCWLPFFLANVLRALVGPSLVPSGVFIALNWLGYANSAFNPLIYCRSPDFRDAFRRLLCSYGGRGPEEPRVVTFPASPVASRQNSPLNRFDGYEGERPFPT
T2 sequence (P13945 whole entry): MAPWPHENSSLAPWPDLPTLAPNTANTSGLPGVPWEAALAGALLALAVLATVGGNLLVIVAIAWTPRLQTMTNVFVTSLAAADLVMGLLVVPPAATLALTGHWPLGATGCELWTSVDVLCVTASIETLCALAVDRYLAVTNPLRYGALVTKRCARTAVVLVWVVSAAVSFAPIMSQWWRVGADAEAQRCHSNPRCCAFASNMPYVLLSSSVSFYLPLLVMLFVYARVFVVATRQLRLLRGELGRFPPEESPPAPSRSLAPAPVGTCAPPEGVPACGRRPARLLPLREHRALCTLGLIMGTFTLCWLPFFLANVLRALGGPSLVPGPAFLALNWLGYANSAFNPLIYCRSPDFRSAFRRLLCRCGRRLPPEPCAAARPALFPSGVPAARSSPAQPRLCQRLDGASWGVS

COC(=O)C1COc2cc(CC(C)NCC(O)c3cccc(C)c3)ccc2O1 (stereo not drawn) [Example 2, 6-{2-[2-Hydroxy-2-(3-tolyl)ethyl]amino}propyl-2,3-dihydro-1,4-benzodioxin-2-carboxylic acid methyl ester]
EC50 [1]: 4 nM | Emax at 1 µM [2]: 25%

CCOC(=O)[C@H]1COc2cc(C[C@H](C)NC[C@H](O)c3cccc(Cl)c3)ccc2O1 [Example 29, (2R,2'S,2"R)-6-{2-[2-(3-Chlorophenyl)-2-hydroxyethyl]amino}propyl-2,3-dihydro-1,4-benzodioxin-2-carboxylic acid ethyl ester]
Percent reduction in blood glucose level, % [3]: 54% | EC50 [1]: 1.7 nM

CCOC(=O)[C@@H]1COc2cc(C[C@H](C)NC[C@H](O)c3cccc(Cl)c3)ccc2O1 [Example 31, (2S,2'S,2"R)-6-{2-[2-(3-Chlorophenyl)-2-hydroxyethyl]amino}propyl-2,3-dihydro-1,4-benzodioxin-2-carboxylic acid ethyl ester]
EC50 [1]: 100 nM

COC(=O)C1COc2cc(CC(C)NCC(O)c3ccc(F)cc3)ccc2O1 (stereo not drawn) [Example 12, 6-{2-[2-Hydroxy-2-(4-fluorophenyl)ethyl]amino}propyl-2,3-dihydro-1,4-benzodioxin-2-carboxylic acid methyl ester]
EC50 [1]: 26 nM | Emax at 1 µM [2]: 29%

CCOC(=O)C1COc2cc(CC(C)NCC(O)c3ccccc3)ccc2O1 (stereo not drawn) [Example 3, 6-[2-(2-Hydroxy-2-phenylethyl)amino]propyl-2,3-dihydro-1,4-benzodioxin-2-carboxylic acid ethyl ester]
Percent reduction in blood glucose level, % [3]: 63% | EC50 [1]: 9 nM

C[C@H](Cc1ccc(OCC(=O)O)cc1)NC[C@H](O)c1cccc(Cl)c1 (relative stereo) [BRL 37344]
anti-hyperglycemic activity, in words [4]: anti-hyperglycemic activity | anti-obesity activity, in words [5]: anti-obesity activity

CCOC(=O)[C@@H]1COc2cc(C[C@@H](C)NC[C@H](O)c3cccc(Cl)c3)ccc2O1 [Example 30, (2S,2'R,2"R)-6-{2-[2-(3-Chlorophenyl)-2-hydroxyethyl]amino}propyl-2,3-dihydro-1,4-benzodioxin-2-carboxylic acid ethyl ester]
EC50 [1]: 16 nM

CCOC(=O)[C@H]1COc2cc(C[C@@H](C)NC[C@H](O)c3cccc(Cl)c3)ccc2O1 [Example 28, (2R,2'R,2"R)-6-{2-[2-(3-Chlorophenyl)-2-hydroxyethyl]amino}propyl-2,3-dihydro-1,4-benzodioxin-2-carboxylic acid ethyl ester hydrochloride]
Percent reduction in blood glucose level, % [3]: 42% | EC50 [1]: 0.1 nM

COC(=O)C1COc2cc(CC(C)NCC(O)c3cccc(Cl)c3)ccc2O1 (stereo not drawn) [Example 10, 6-{2-[2-(3-Chlorophenyl)-2-hydroxyethyl]amino}propyl-2,3-dihydro-1,4-benzodioxin-2-carboxylic acid methyl ester]
Percent reduction in blood glucose level, % [3]: 48% | Emax at 1 µM [2]: 43%

COC(=O)C1COc2cc(CC(C)NCC(O)c3cccc(C(F)(F)F)c3)ccc2O1 (stereo not drawn) [Example 11, 6-{2-[2-Hydroxy-2-(3-trifluoromethylphenyl)ethyl]amino}propyl-2,3-dihydro-1,4-benzodioxin-2-carboxylic acid methyl ester]
EC50 [1]: 2.4 nM

CCOC(=O)C1COc2ccc(CC(C)NCC(O)c3ccccc3)cc2O1 (stereo not drawn) [Example 4, 7-[2-(2-Hydroxy-2-phenylethyl)amino]propyl-2,3-dihydro-1,4-benzodioxin-2-carboxylic acid ethyl ester]
EC50 [1]: 56 nM

COC(=O)C1COc2cc(CC(C)NCC(O)c3cccc(OC)c3)ccc2O1 (stereo not drawn) [Example 1, 6-{2-[2-Hydroxy-2-(3-methoxyphenyl)ethyl]amino}propyl-2,3-dihydro-1,4-benzodioxin-2-carboxylic acid methyl ester]
Percent reduction in blood glucose level, % [3]: 53% | EC50 [1]: 46 nM | Emax at 1 µM [2]: 21%

COC(=O)COc1ccc(C[C@@H](C)NC[C@H](O)c2cccc(Cl)c2)cc1 (relative stereo) [BRL 35135]
lipolytic activity (β3) in rats, in words [6]: lipolytic activity (β3) in rats | anti-hyperglycemic activity, in words [4]: anti-hyperglycemic activity | β3 agonistic activity, in words [7]: has β3 agonistic activity | anti-obesity activity, in words [5]: anti-obesity activity | β1 or β2 agonistic activity, in words [8]: has β1 or β2 agonistic activity

COC(=O)C1COc2cc(CC(C)NCC(O)c3ccc4c(c3)OCO4)ccc2O1 (stereo not drawn) [Example 5, 6-[2-(2-Hydroxy-2-piperonylethyl)amino]propyl-2,3-dihydro-1,4-benzodioxin-2-carboxylic acid methyl ester]
EC50 [1]: 100 nM
